30 compounds from US11124509B2, “Tri-substituted imidazoles for the inhibition of TGF beta and methods of treatment” (CLAVIUS PHARMACEUTICALS, LLC, priority 2017, dated 2021) can be followed below.

Test [1] has as its system TGF-beta 1 stimulated SBE-b1a HEK 293T cells. As to the kind of experiment: GeneBLAzer beta-lactamase reporter, TGF-beta 1 stimulated SBE-b1a HEK 293T cell-based assay (ThermoFisher SelectScreen). The following applies: TGF-beta 1 0.03 nM, 5 hours, inhibitor 10,000 nM to 0.316 nM, sigmoidal dose response curve fit, read-out: Cells (SBE_HEK293T) IC50. On the procedure: (§1) Exemplified compounds were confirmed to inhibit ALK5 activity in enzyme and cellular assays in the following assay systems conducted by ThermoFisher in Madison, Wis. according to their commercially available protocols.
ThermoFisher SelectScreen™ Cell-Based Pathway Profiling Service GeneBLAzer Beta-Lactamase (b1a) Reporter Technology—TGF-Beta 1 Stimulated SBE-b1a HEK 293T Cell-Based Assay
SBE-b1a HEK 293T cells were thawed and re-suspended in Assay Media (OPTI-MEM, 0.5% dialyzed FBS, 0.1 mM NEAA, 1 mM Sodium Pyruvate, 100 U/mL/100 μg/mL Pen/Strep) to a concentration of 625,000 cells/mL. 32 μL of cell suspension (20,000 cells) was added to each well of a 384-well Poly-D-Lysine assay plate. Cells in Assay Media were incubated for 16-24 hours in the plate at 37° C./5% CO2 in a humidified incubator. 4 μL of a 10× serial dilution of ALK5 inhibitors (10x=100,000-3.16 nM) was added to appropriate wells of the plate and pre-incubated at 37° C./5% CO2 in a humidified incubator with cells for 30 minutes. Final concentration of inhibitor ranged from 10,000 nM to 0.316 nM. 4 μL of 10× TGF-beta 1 (final concentration of 0.03 nM) was added to wells containing the inhibitors. The plate was incubated for 5 hours at 37° C./5% CO2 in a humidified incubator. 8 μL of 1 μM Substrate Loading Solution was added to each well and the plate was incubated for 2 hours at room temperature before being read on a fluorescence plate reader. Percent inhibition was determined compared to DMSO only control (maximal TGF-beta 1 stimulation) and sigmoidal dose response curve fit yielded IC50 values as indicated in Table 2.

The next test addresses TGFBR1 (ALK5) (Homo sapiens (Human), UniProt P36897). As to the kind of experiment: LanthaScreen Eu Kinase Binding Assay TGFBR1 (ALK5) (ThermoFisher SelectScreen). The following applies: read-out: TβRI (ALK5) Binding IC50. On the procedure:
as §1
ThermoFisher SelectScreen™ Biochemical Kinase Profiling Service, LanthaScreen™Eu Kinase Binding Assay TGFBR1 (ALK5)
Exemplified compounds were screened in 1% DMSO (final concentration) by 3-fold serial dilutions from 10,000 nM to 0.316 nM to produce an IC50 or at single concentrations of 10,000, 1000 and 100 nM according to the following protocol. To low volume, white 384-well plates (Greiner Cat #784207) add 160 nL 100× compound in 100% DMSO, 3.84 uL kinase buffer (50 mM HEPES, pH 7.5, 0.01% BRIJ-35, 10 mM MgCl2, 1 mM EGTA), 8 uL 2× kinase/antibody mixture in kinase buffer (final ALK5 concentration of 5 nM; final Eu-anti-GST antibody concentration of 2 nM), 4 uL 4× Tracer #178 in kinase buffer (final concentration of 5 nM). Gently shake the plates for 30 seconds and incubate at room temperature for 1 hour before reading fluorescence on a plate reader. Percent inhibition was determined compared to DMSO only control (maximal ALK5 tracer binding) and sigmoidal dose response curve fit yielded IC50 values as indicated in Table 2.
(In general: In TR-FRET formats the signal depends on donor and acceptor labels being close together.)

[2] abbreviates: 3-fold serial dilutions 10,000 nM to 0.316 nM, ALK5 5 nM, Tracer #178 5 nM, sigmoidal dose response curve fit.
Where [3] appears, read: compounds marked with an asterisk: evaluated at three concentrations, IC50 depicted as less than the lowest concentration producing >50% inhibition.

Broadly, the IC50 is the concentration that gives 50% inhibition.

Where a name gives a salt, the structure may show the parent alone. Read-outs that look alike come from different tables or passages of the source.

Chain of TGFBR1 (ALK5) (P36897 34-503): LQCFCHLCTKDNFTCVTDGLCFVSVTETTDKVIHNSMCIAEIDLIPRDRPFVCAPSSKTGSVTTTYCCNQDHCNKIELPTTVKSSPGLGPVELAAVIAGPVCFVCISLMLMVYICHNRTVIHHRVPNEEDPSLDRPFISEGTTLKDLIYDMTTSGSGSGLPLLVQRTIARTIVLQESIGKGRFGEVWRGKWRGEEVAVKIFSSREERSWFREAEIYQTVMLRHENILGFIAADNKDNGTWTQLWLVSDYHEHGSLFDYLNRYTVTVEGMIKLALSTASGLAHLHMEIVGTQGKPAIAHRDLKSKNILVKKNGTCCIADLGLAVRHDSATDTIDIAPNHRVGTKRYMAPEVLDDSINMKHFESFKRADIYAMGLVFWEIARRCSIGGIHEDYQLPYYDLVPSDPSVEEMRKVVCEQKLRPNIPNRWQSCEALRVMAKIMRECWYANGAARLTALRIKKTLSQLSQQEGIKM

With `Cn1ccc(-c2nc(CNc3ccccc3F)[nH]c2-c2ccc3ncnn3c2)n1` [Compound 2, N-((5-([1,2,4]triazolo[1,5-a]pyridin-6-yl)-4-(1-methyl-1H-pyrazol-3-yl)-1H-imidazol-2-yl)methyl)-2-fluoroaniline hydrochloride], the IC50 in test [1] (Homo sapiens, HEK-293T) was more than 10000 nM; on TGFBR1 (ALK5) (setting [2]) it was 1370 nM.

Turning to `Cn1ccc(-c2nc(CNc3ccccc3)[nH]c2-c2ccc3ncnn3c2)n1` [Compound 4, N-((5-([1,2,4]triazolo[1,5-a]pyridin-6-yl)-4-(1-methyl-1H-pyrazol-3-yl)-1H-imidazol-2-yl)methyl)aniline hydrochloride], the IC50 in test [1] (Homo sapiens, HEK-293T) was more than 10000 nM; on TGFBR1 (ALK5) (setting [2]) it was 1370 nM.

`Cn1ccc(-c2nc(CNc3cccc(F)c3)[nH]c2-c2ccc3ncnn3c2)n1` [Compound 6, N-((5-([1,2,4]triazolo[1,5-a]pyridin-6-yl)-4-(1-methyl-1H-pyrazol-3-yl)-1H-imidazol-2-yl)methyl)-3-fluoroaniline hydrochloride]: the concentration for half-maximal inhibition (IC50) worked out at 3870 nM in test [1] (Homo sapiens, HEK-293T) and 354 nM on TGFBR1 (ALK5) (setting [2]).

As to `Cn1ccc(-c2nc(CNc3ccc(F)cc3)[nH]c2-c2ccc3ncnn3c2)n1` [Compound 8, N-((5-([1,2,4]triazolo[1,5-a]pyridin-6-yl)-4-(1-methyl-1H-pyrazol-3-yl)-1H-imidazol-2-yl)methyl)-4-fluoroaniline hydrochloride], the IC50 in test [1] (Homo sapiens, HEK-293T) was more than 10000 nM; on TGFBR1 (ALK5) (setting [2]) it was 811 nM.

Take `CC(C)n1ccc(-c2nc(CNc3ccccc3)[nH]c2-c2ccc3ncnn3c2)n1` [Compound 10, N-((5-([1,2,4]triazolo[1,5-a]pyridin-6-yl)-4-(1-isopropyl-1H-pyrazol-3-yl)-1H-imidazol-2-yl)methyl)aniline hydrochloride]: the IC50 in test [1] (Homo sapiens, HEK-293T) amounted to 2660 nM; at TGFBR1 (ALK5) (setting [2]), 264 nM.

As to `Cn1ccc(-c2nc(CNc3ccc(Cl)cc3)[nH]c2-c2ccc3ncnn3c2)n1` [Compound 12, N-((5-([1,2,4]triazolo[1,5-a]pyridin-6-yl)-4-(1-methyl-1H-pyrazol-3-yl)-1H-imidazol-2-yl)methyl)-4-chloroaniline hydrochloride], in test [1] (Homo sapiens, HEK-293T), the IC50 was more than 10000 nM.

Consider `Cn1ccc(-c2nc(CNc3cccc(C#N)c3)[nH]c2-c2ccc3ncnn3c2)n1` [Compound 16, 3-(((5-([1,2,4]triazolo[1,5-a]pyridin-6-yl)-4-(1-methyl-1H-pyrazol-3-yl)-1H-imidazol-2-yl)methyl)amino)benzonitrile hydrochloride], for which the IC50 is 3570 nM in test [1] (Homo sapiens, HEK-293T) and less than 1000 nM at TGFBR1 (ALK5) (setting [3]).

For `CC(C)n1ccc(-c2nc(CNc3cccc(F)c3)[nH]c2-c2ccc3ncnn3c2)n1` [Compound 20, N-((5-([1,2,4]triazolo[1,5-a]pyridin-6-yl)-4-(1-isopropyl-1H-pyrazol-3-yl)-1H-imidazol-2-yl)methyl)-3-fluoroaniline hydrochloride], the IC50 in test [1] (Homo sapiens, HEK-293T) was 1270 nM; on TGFBR1 (ALK5) (setting [3]), less than 100 nM.

In the case of `CC(C)n1ccc(-c2nc(CNc3cccc(F)c3)[nH]c2-c2ccc3nccnc3c2)n1` [Compound 22, 3-fluoro-N-((4-(1-isopropyl-1H-pyrazol-3-yl)-5-(quinoxalin-6-yl)-1H-imidazol-2-yl)methyl)aniline hydrochloride], the concentration for half-maximal inhibition (IC50) in test [1] (Homo sapiens, HEK-293T) was 1090 nM; at TGFBR1 (ALK5) (setting [3]), less than 100 nM.

Turning to `Cn1ccc(-c2nc(CNc3cccc(F)c3)[nH]c2-c2ccc3ncccc3c2)n1` [Compound 24], the IC50 in test [1] (Homo sapiens, HEK-293T) is 1930 nM; at TGFBR1 (ALK5) (setting [3]), less than 200 nM.

Consider `CC(C)n1ccc(-c2nc(CNc3cccc(F)c3)[nH]c2-c2ccc3ncccc3c2)n1` [Compound 26, 3-fluoro-N-((4-(1-isopropyl-1H-pyrazol-3-yl)-5-(quinolin-6-yl)-1H-imidazol-2-yl)methyl)aniline hydrochloride], for which the IC50 at TGFBR1 (ALK5) (setting [3]) is less than 100 nM.

`CC(C)n1ccc(-c2nc(CNc3cccc(F)c3)[nH]c2-c2ccc3ncc(C#N)n3n2)n1` [Compound 27]: the IC50 at TGFBR1 (ALK5) (setting [3]) is less than 100 nM.

As for `CC(C)n1ccc(-c2nc(CNc3cccc(C#N)c3)[nH]c2-c2ccc3ncnn3c2)n1` [Compound 28], the IC50 in test [1] (Homo sapiens, HEK-293T) is 757 nM; at TGFBR1 (ALK5) (setting [3]) it was less than 100 nM.

In the case of `CC(C)n1ccc(-c2nc(CNc3cccc(C(N)=O)c3)[nH]c2-c2ccc3ncnn3c2)n1` [Compound 29, 3-(((5-([1,2,4]triazolo[1,5-a]pyridin-6-yl)-4-(1-isopropyl-1H-pyrazol-3-yl)-1H-imidazol-2-yl)methyl)amino)benzamide], the IC50 in test [1] (Homo sapiens, HEK-293T) is 4620 nM; on TGFBR1 (ALK5) (setting [3]), less than 100 nM.

Consider `Cn1ccc(-c2nc(CNc3ccccc3F)[nH]c2-c2ccc3ncccc3c2)n1` [Compound 31, 2-fluoro-N-((4-(1-methyl-1H-pyrazol-3-yl)-5-(quinolin-6-yl)-1H-imidazol-2-yl)methyl)aniline hydrochloride], for which the half-maximal inhibitory concentration (IC50) in test [1] (Homo sapiens, HEK-293T) is 8930 nM; on TGFBR1 (ALK5) (setting [3]) it was less than 1000 nM.

Regarding `CC(C)n1ccc(-c2nc(CNc3ccccc3F)[nH]c2-c2ccc3ncccc3c2)n1` [Compound 33, 2-fluoro-N-((4-(1-isopropyl-1H-pyrazol-3-yl)-5-(quinolin-6-yl)-1H-imidazol-2-yl)methyl)aniline hydrochloride], the IC50 was 9120 nM in test [1] (Homo sapiens, HEK-293T) and less than 200 nM on TGFBR1 (ALK5) (setting [3]).

For the compound `CC(C)n1ccc(-c2nc(CNc3cccc(F)c3)[nH]c2-c2ccc3ncc(C(N)=O)n3n2)n1` [Compound 34], the IC50 was 379 nM in test [1] (Homo sapiens, HEK-293T) and 49 nM at TGFBR1 (ALK5) (setting [2]).

As to `CC(C)n1ccc(-c2nc(CNc3cc(F)cc(F)c3)[nH]c2-c2ccc3ncnn3c2)n1` [Compound 36, N-((5-([1,2,4]triazolo[1,5-a]pyridin-6-yl)-4-(1-isopropyl-1H-pyrazol-3-yl)-1H-imidazol-2-yl)methyl)-3,5-difluoroaniline hydrochloride], the IC50 in test [1] (Homo sapiens, HEK-293T) was 507 nM; on TGFBR1 (ALK5) (setting [2]), 103 nM.

Consider `CC(C)n1ccc(-c2nc(CNc3cc(F)cc(F)c3)[nH]c2-c2ccc3nccnc3c2)n1` [Compound 39], for which the IC50 in test [1] (Homo sapiens, HEK-293T) was determined as 53.6 nM.

For the compound `Cn1ccc(-c2nc(-c3ccc(C#N)cc3)[nH]c2-c2ccc3nccnc3c2)n1` [Compound 42], the IC50 at TGFBR1 (ALK5) (setting [3]) was less than 1000 nM.

With `CC(C)n1ccc(-c2nc(CNc3ccc(F)c(F)c3)[nH]c2-c2ccc3nccnc3c2)n1` [Compound 48], the IC50 at TGFBR1 (ALK5) (setting [3]) is less than 100 nM.

For the compound `CC(C)n1ccc(-c2nc(CNc3ccc(Cl)c(F)c3)[nH]c2-c2ccc3nccnc3c2)n1` [Compound 49], on TGFBR1 (ALK5) (setting [3]), the 50% inhibitory concentration (IC50) was less than 1000 nM.

Turning to `CC(C)n1ccc(-c2nc(CNc3cc(F)cc(C#N)c3)[nH]c2-c2ccc3nccnc3c2)n1` [Compound 50], the IC50 in test [1] (Homo sapiens, HEK-293T) was 1070 nM.

With `CC(C)n1ccc(-c2nc(CNc3ccc(Cl)c(Cl)c3)[nH]c2-c2ccc3nccnc3c2)n1` [Compound 51], at TGFBR1 (ALK5) (setting [2]), the IC50 was 260 nM.

With `CC(C)n1ccc(-c2nc[nH]c2-c2ccc3nccnc3c2)n1` [Compound 53, 6-(4-(1-isopropyl-1H-pyrazol-3-yl)-1H-imidazol-5-yl)quinoxaline hydrochloride], the IC50 at TGFBR1 (ALK5) (setting [3]) is less than 1000 nM.

In the case of `CC(C)n1ccc(-c2nc(-c3ccc(C(N)=O)cc3)[nH]c2-c2ccc3nccnc3c2)n1` [Compound 59], the IC50 on TGFBR1 (ALK5) (setting [2]) was 889 nM.

Take `N#Cc1ccc(-c2nc(-c3ccn(C(F)F)n3)c(-c3ccc4ncsc4c3)[nH]2)cc1` [Compound 60]: the IC50 on TGFBR1 (ALK5) (setting [2]) worked out at 71.7 nM.

For `Cn1ccc(-c2nc(-c3ccc(C(N)=O)cc3)[nH]c2-c2ccc3c(c2)OCO3)n1` [Compound 67], the concentration for half-maximal inhibition (IC50) on TGFBR1 (ALK5) (setting [2]) was determined as 50 nM.

Turning to `Fc1cc(F)cc(NCc2nc(-c3ccn(C4CC4)n3)c(-c3ccc4ncnn4c3)[nH]2)c1` [Compound 69], the IC50 on TGFBR1 (ALK5) (setting [2]) was found to be 3 nM.

With “N-((5-([1,2,4]triazolo[1,5-a]pyridin-6-yl)-4-(1-methyl-1H-pyrazol-3-yl)-1H-imidazol-2-yl)methyl)-4-chloroaniline hydrochloride [Compound 14]”, the IC50 in test [1] was more than 10000 nM.
